# Patent US12492173B2, “Herbicidal substituted N-tetrazolyl aryl carboxamides” (Bayer Aktiengesellschaft, priority 2019, dated 2025)
# Tests used:
# Assay type in all cases: in vivo
# [1] = system: Pharbitis purpurea; test: Pre-emergence herbicidal action, PHBPU; conditions: for herbicidal activity PHBPU: scored visually after 3 weeks vs untreated controls (100% = plants have died)
# How it was run: (§1)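 Herbicidal activity is expressed in percent, scored by eye after a 3-week greenhouse period, with 0% matching untreated plants and 100% meaning death. Compounds, as wettable powders or emulsion concentrates, are applied pre-emergence to the covering soil.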
# [2] = system: Matricaria inodora; test: Post-emergence herbicidal action, MATIN; set-up: key: % herbicidal action vs untreated; 100 = plants died, 0 = like control; conditions: for Herbicidal action against MATIN: comparative experiment
# How it was run: (§2)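 Treatment: post-emergence spray, one-leaf stage. Medium: sandy loam, greenhouse. Carrier: 600–800 l/ha water, 0.2% wetting agent. Read-out: visual % activity at ~3 weeks, untreated plants as reference.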
# [3] = system: Polygonum convolvulus; test: Post-emergence herbicidal action, POLCO
# How it was run: as §2
# [4] = system: Setaria viridis; test: Pre-emergence herbicidal action, SETVI; set-up: key to Herbicidal action against SETVI: % activity: 100 = plants have died, 0 = like control plants; conditions: for herbicidal activity SETVI: scored visually after 3 weeks vs untreated controls (100% = plants have died); for Herbicidal action against SETVI: comparative experiment
# How it was run: as §1
# [5] = system: Amaranthus retroflexus; test: Pre-emergence herbicidal action, AMARE; set-up: key to Herbicidal action against AMARE: % activity: 100 = plants have died, 0 = like control plants; conditions: for herbicidal activity AMARE: scored visually after 3 weeks vs untreated controls (100% = plants have died); for Herbicidal action against AMARE: comparative experiment
# How it was run: as §1
# [6] = system: Avena fatua; test: Post-emergence herbicidal action, AVEFA; set-up: key: % herbicidal action vs untreated; 100 = plants died, 0 = like control; conditions: for Herbicidal action against AVEFA: comparative experiment
# How it was run: as §2
# [7] = post-emergence, 20 g of a.i./ha
Compound,herbicidal activity PHBPU ([1]; dosage 320 g/ha),"herbicidal action MATIN ([2]; post-emergence, dosage 80 g/ha)","herbicidal action POLCO ([3]; post-emergence, dosage 80 g/ha)",herbicidal activity SETVI ([4]; dosage 320 g/ha),herbicidal activity AMARE ([5]; dosage 320 g/ha),"herbicidal action AVEFA ([6]; post-emergence, dosage 80 g/ha)",herbicidal action POLCO ([3]; Dosage 80 g/ha),herbicidal action AVEFA ([6]; Dosage 80 g/ha),other results
CC[S+]([O-])Cc1c(C(F)(F)F)ccc(C(=O)Nc2nnnn2C)c1Cl (racemic) [Example 1-300],100%,100%,100%,100%,100%,100%,–,–,–
Cn1nnnc1NC(=O)c1ccc(C(F)(F)F)c(C[S+]([O-])C2CC2)c1Cl (racemic) [Example 1-303],100%,100%,100%,100%,100%,100%,–,–,–
COCC[S+]([O-])Cc1c(C(F)(F)F)ccc(C(=O)Nc2nnnn2C)c1Cl (racemic) [Example 1-306],90%,–,–,90%,100%,–,90,80,herbicidal action MATIN ([2]; Dosage 80 g/ha): 90
Cn1nnnc1NC(=O)c1ccc(C(F)(F)F)c(C[S+]([O-])CC(F)(F)F)c1Cl (racemic) [Example 1-312],90%,100%,100%,100%,100%,90%,–,–,–
CC[S+]([O-])Cc1c(C(F)(F)F)ccc(C(=O)Nc2nnnn2C)c1Br (racemic) [Example 1-384],90%,90%,90%,100%,100%,100%,–,–,"Herbicidal action against MATIN [2, 7]: 90; Herbicidal action against SETVI ([4]; 80 g of a.i./ha): 100"
CSCc1c(C(F)(F)F)ccc(C(=O)Nc2nnnn2C)c1C [Example 1-83],80%,100%,90%,100%,100%,90%,–,–,–
CCS(=O)(=O)Cc1c(C(F)(F)F)ccc(C(=O)Nc2nnnn2C)c1C [Example 1-88],–,–,–,–,–,–,90,80,herbicidal action PHBPU ([1]; dosage 320 g/ha): 90%; herbicidal action MATIN ([2]; Dosage 80 g/ha): 90; herbicidal action SETVI ([4]; dosage 320 g/ha): 100%; herbicidal action AMARE ([5]; dosage 320 g/ha): 100%
CSc1c(C(=O)Nc2nnnn2C)ccc(C(F)(F)F)c1C[S+](C)[O-] (stereo not drawn) [Example 1-162],90%,100%,90%,100%,100%,100%,–,–,"Herbicidal action against PHBPU ([1]; comparative experiment, 20 g of a.i./ha): 60; Herbicidal action against AMARE ([5]; 20 g of a.i./ha): 100"
CCSCc1c(C(F)(F)F)ccc(C(=O)Nc2nnnn2C)c1Cl [Example 1-299],90%,90%,80%,100%,100%,90%,–,–,"Herbicidal action against MATIN ([2]; post-emergence, 5 g of a.i./ha): 80; Herbicidal action against POLCO ([3]; comparative experiment, post-emergence, 5 g of a.i./ha): 60; Herbicidal action against SETVI ([4]; 20 g of a.i./ha): 90; Herbicidal action against AVEFA ([6]; post-emergence, 5 g of a.i./ha): 80"
Cn1nnnc1NC(=O)c1ccc(C(F)(F)F)c(CSC2CC2)c1Cl [Example 1-302],100%,90%,100%,100%,100%,100%,–,–,–
Cn1nnnc1NC(=O)c1ccc(C(F)(F)F)c(CS(=O)(=O)C2CC2)c1Cl [Example 1-304],100%,90%,100%,100%,100%,100%,–,–,–
COCCSCc1c(C(F)(F)F)ccc(C(=O)Nc2nnnn2C)c1Cl [Example 1-305],90%,100%,100%,100%,100%,100%,–,–,–
Cn1nnnc1NC(=O)c1ccc(C(F)(F)F)c(CSCC2CC2)c1Cl [Example 1-314],90%,100%,100%,100%,100%,100%,–,–,–
Cn1nnnc1NC(=O)c1ccc(C(F)(F)F)c(CS(=O)(=O)CC2CC2)c1Cl [Example 1-316],90%,–,–,100%,100%,–,100,100,herbicidal action MATIN ([2]; Dosage 80 g/ha): 90
CSCc1c(C(F)F)ccc(C(=O)Nc2nnnn2C)c1Cl [Example 1-320],80%,–,–,100%,90%,–,80,100,–
Cn1nnnc1NC(=O)c1ccc(C(F)F)c(CS(C)(=O)=O)c1Cl [Example 1-322],100%,80%,90%,100%,100%,80%,–,–,–
CCSCc1c(C(F)F)ccc(C(=O)Nc2nnnn2C)c1Cl [Example 1-323],100%,100%,90%,100%,100%,100%,–,–,"Herbicidal action against AVEFA ([6]; post-emergence, 5 g of a.i./ha): 70"
CCS(=O)(=O)Cc1c(C(F)F)ccc(C(=O)Nc2nnnn2C)c1Cl [Example 1-325],100%,–,–,100%,100%,–,90,90,herbicidal action MATIN ([2]; Dosage 80 g/ha): 80
CSCc1c(I)ccc(C(=O)Nc2nnnn2C)c1Cl [Example 1-362],80%,100%,90%,100%,100%,100%,–,–,Herbicidal action against SETVI ([4]; 20 g of a.i./ha): 90; Herbicidal action against AMARE ([5]; 20 g of a.i./ha): 90
CCSCc1c(C(F)(F)F)ccc(C(=O)Nc2nnnn2C)c1Br [Example 1-383],80%,90%,90%,100%,100%,90%,–,–,"Herbicidal action against SETVI ([4]; 80 g of a.i./ha): 100; Herbicidal action against AMARE ([5]; 80 g of a.i./ha): 100; Herbicidal action against AVEFA [6, 7]: 90"
Cn1nnnc1NC(=O)c1ccc(C(F)(F)F)c(CS(C)(=O)=O)c1C(F)(F)C(F)(F)F [Example 1-552],90%,–,–,100%,100%,–,90,90,herbicidal action MATIN ([2]; Dosage 80 g/ha): 90
CCn1nnnc1NC(=O)c1ccc(C(F)(F)F)c(C[S+](C)[O-])c1SC (stereo not drawn) [Example 2-162],90%,–,–,100%,100%,–,90,100,herbicidal action MATIN ([2]; Dosage 80 g/ha): 100
CCn1nnnc1NC(=O)c1ccc(C(F)(F)F)c(CSC)c1Cl [Example 2-296],90%,90%,100%,100%,100%,100%,–,–,–
CCn1nnnc1NC(=O)c1ccc(C(F)(F)F)c(C[S+](C)[O-])c1Cl (stereo not drawn) [Example 2-297],90%,100%,90%,100%,100%,100%,–,–,–
CCn1nnnc1NC(=O)c1ccc(C(F)(F)F)c(CS(C)(=O)=O)c1Cl [Example 2-298],80%,–,–,100%,100%,–,90,100,herbicidal action MATIN ([2]; Dosage 80 g/ha): 100
CCSCc1c(C(F)(F)F)ccc(C(=O)Nc2nnnn2CC)c1Cl [Example 2-299],90%,100%,90%,100%,100%,100%,–,–,–
CCn1nnnc1NC(=O)c1ccc(C(F)(F)F)c(C[S+]([O-])CC)c1Cl (stereo not drawn) [Example 2-300],100%,90%,100%,100%,100%,100%,–,–,–
CCn1nnnc1NC(=O)c1ccc(C(F)F)c(CSC)c1Cl [Example 2-320],80%,–,–,100%,100%,–,100,90,–
